According to patent publication US20150329387A1, “SYSTEMS AND METHODS FOR GENERATING HALOAMINES AND APPLICATION THEREOF IN OIL AND GAS OPERATIONS” (BUCKMAN LABORATORIES INTERNATIONAL, INC., priority 2014, published 2015):

What was measured:
Type in all cases: cell-based
[1] = tested on: total biological organism concentration; experiment: ATP test of biocides in produced water from oil field water/oil/gas separator (LuminUltra QBG kit)
From the text: A one-liter sample of water was obtained from the mechanical water/oil/gas separator from a producing oil field in the western USA. The one liter sample was separated into four aliquots, one control and three test samples.
Adenosine triphosphate (ATP) is the energy source for all living organisms. Measurement of the ATP concentration in a water sample gives a good indication of the concentration of total biological organism concentration. A number of different companies including 3M and LuminUltra manufacture test kits. For this testing, the LuminUltra QBG test kit was employed.
Each of the non-control samples were dosed with one of three different biocides: MTC-10 (a 10% solution of methylenebis(thiocyanate) at 22 ppm active concentration; Diald 25 (a 25% solution of Glutaraldehyde) at 50 ppm active; and monochloramine (MCA) at a concentration of 7.5 ppm. After 30 and 60 minutes of exposure, ATP levels were measured and recorded.

anaerobes = experiment: Kill study: ATP test of anaerobically captured oil field influent water (LuminUltra QUO-M kit); set-up: ATP readings: unit not given here
Description: In an oil and gas field in the western USA, MCA was tested in comparison with methylene bis(thiocyanate), (MTC) in a weekly batch treatment and is fed for 2-3 hours at 200 ppm (as product).
A solution of MCA Working Solution was prepared using Busan 1474 and Bulab 6004 (high alkalinity bleach). The reaction of these two components diluted in water at the proper equimolar ratios and proper pH produces a stable high concentration of biocide. A known concentration of MCA was added to a specific volume of influent water which had to be captured under anaerobic conditions and kept in an incubation chamber when not being used because the primary organisms of interest (anaerobes) are very susceptible to both oxygen and temperature changes. Therefore, as soon as the samples were collected, the head space of the bottles were purged with Nitrogen and then sealed with a rubber stopper (which will permit the insertion of a hypodermic needle) and then crimped into place with an aluminium seal.
Owing to the fact that there is significant oil in the water, the organisms are coated with a fine layer of organic material, thus necessitating the usage of an ATP test kit which washes away the layer of oil prior to ATP testing. The kit employed for this testing is manufactured by LuminUltra and is identified as the Quench Gone Organic-Modified (QUO-M) test kit.
Furthermore, in order to ensure that adequate MCA was present to penetrate this oil layer (and have an apples to apples comparison in performance), the MCA was dosed at the same level as the MTC at a concentration of 200 ppm.
The MCA was tested at intervals between this period (30, 60, 180, and 240 minutes).
Bottles were collected and the initial concentration of ATP for each bottle was measured and then dosed with 200 ppm of MCA and MTC respectively and one bottle was not dosed to serve as a growth control.

[2] = Previous testing of kill time and cell penetration
Description: Previous testing had shown that the MCA was killing in 20 minutes what it took other biocides (i.e. MTC and Glutaraldehyde) to accomplish in four hours.

[3] = 0 min, initial reading of the bottle before dosing at 200 ppm
[4] = 180 min after dosing at 200 ppm
[5] = 240 min after dosing at 200 ppm

NCl [MCA, monochloramine]
Effectiveness relative to MTC-10 on an activity percentage basis ([1]; 30 minutes and 60 minutes of exposure, Figure-3): greater than 3 × | Performance better than Diald-25 on an activity percentage basis ([1]; 60 minutes of exposure, Figure-3): more than 20% | Performance on a product percentage basis compared with Diald-25 ([1]; MCA 7.5 ppm vs Diald 25 50 ppm active, ATP after 30 and 60 minutes, Figure-2): better than Diald-25 | Performance on a product percentage basis compared with MTC-10 ([1]; MCA 7.5 ppm vs MTC-10 22 ppm active, ATP after 30 and 60 minutes, Figure-2): as well as MTC-10 | Performance relative to Diald-25 on an activity percentage basis ([1]; first 30 minutes, Figure-3): ~2 × | ATP readings (anaerobes; [3]): 321.4 | Percent reduction in ATP level (percent kill) (anaerobes; 30 min, 200 ppm): 92% | ATP readings (anaerobes; 30 min after dosing at 200 ppm): 26.05 | Percent reduction in ATP level (percent kill) (anaerobes; 60 min, 200 ppm): 94% | ATP readings (anaerobes; 60 min after dosing at 200 ppm): 19.2 | Percent reduction in ATP level (percent kill) (anaerobes; 180 min, 200 ppm): 95% | ATP readings (anaerobes; [4]): 17.4 | Percent reduction in ATP level (percent kill) (anaerobes; 240 min, 200 ppm): 96% | ATP readings (anaerobes; [5]): 11.9 | Cell penetration ([2]; compared with MTC): better than for MTC | Time to accomplish kill ([2]; previous testing): 20 min

N#CSCSC#N [MTC, methylene bis(thiocyanate), reference compound]
ATP readings (anaerobes; [3]): 217.3 | Overall performance in kill study compared with MCA (anaerobes; 200 ppm, FIG. 4 / Table 1): performed slightly better | ATP readings (anaerobes; [4]): 16.9 | Percent reduction in ATP level (percent kill) (anaerobes; 240 min, 200 ppm): 0.97% | ATP readings (anaerobes; [5]): 6.12
